From PubChem BioAssay AID232 (DTP/NCI, 2004)
“And” between values parts separate entries of the source, which are not always exact repeats. Equal values may be shown once. Toxic doses and inconclusive results are not listed. Numbered stars: 1 amine (or outer) side, 2 acyl side, 3 side chain; on linkers, the order of the positions; unused ones are H or OH. Bridge positions count the residues as written; N and C are the ends. Square brackets hold non-standard residues; d marks the D form. Peptide text beside a SMILES is read from it. I, II: the chains in the order shown. Actinocin(9to1) = Cc1c2oc3c(C)ccc(C(=O)[*:1])c3nc-2c(C(=O)[*:2])c(N)c1=O; aThr = C[C@H](O)[C@H](N)C(=O)O; NMeV = CN[C@H](C(=O)O)C(C)C; Sar = CNCC(=O)O

Test system: Gardner 6C3HED lymphosarcoma ip, C3AKF1 mice, survival T/C
Assay: NCI In Vivo Anticancer Drug Screen. Data for tumor model Lymphosarcoma Gardner 6C3HED (intraperitoneal) in C3AKF1 (CHKRF1) mice
Details: endpoint: survival time, mean or median, schedule: Q01DX010 (ip), higher = longer survival
Procedure: The antitumor activity of compounds was measured in mice bearing transplantable tumors. Survival or tumor size were measured and the results are expressed as the measurement made in the treated group (T) divided by the measurement made in the vehicle treated control group (C). The tumor model used in this assay is Lymphosarcoma Gardner 6C3HED (intraperitoneal) in C3AKF1 (CHKRF1) mice

[1] = dose: 2.0 mg/kg/injection, vehicle: saline
[2] = dose: 4.0 mg/kg/injection, vehicle: saline
[3] = dose: 8.0 mg/kg/injection, vehicle: saline
[4] = dose: 16.0 mg/kg/injection, vehicle: saline
[5] = dose: 5.0 mg/kg/injection, vehicle: saline
[6] = dose: 10.0 mg/kg/injection, vehicle: saline
[7] = dose: 20.0 mg/kg/injection, vehicle: saline
[8] = dose: 12.0 mg/kg/injection, vehicle: saline
[9] = dose: 40.0 mg/kg/injection, vehicle: saline
[10] = dose: 1.0 mg/kg/injection, vehicle: saline
[11] = dose: 80.0 mg/kg/injection, vehicle: saline
[12] = dose: 62.5 mg/kg/injection, vehicle: saline
[13] = dose: 125.0 mg/kg/injection, vehicle: saline
[14] = dose: 500.0 mg/kg/injection, vehicle: saline
[15] = dose: 2.5 mg/kg/injection, vehicle: saline
[16] = dose: 2.0 mg/kg/injection, vehicle: other
[17] = dose: 4.0 mg/kg/injection, vehicle: other
[18] = dose: 6.25 mg/kg/injection, vehicle: saline
[19] = dose: 12.5 mg/kg/injection, vehicle: saline
[20] = dose: 150.0 mg/kg/injection, vehicle: saline
[21] = dose: 50.0 mg/kg/injection, vehicle: saline

In the case of `CC(CCC(C)OS(C)(=O)=O)OS(C)(=O)=O` (stereo not given), the T/C [1] is reported as 100 % of control, the T/C [2] is reported as 104 % of control and the T/C [3] is reported as 104 % of control. For the same molecule, the T/C [4] was 116 % of control.
With `Cc1cc(N(CCCl)CCCl)ccc1N=Nc1ccccc1C(=O)O` the T/C [5] was 109 % of control and 116 % of control, the T/C [6] was 113 % of control and the T/C [7] was 118 % of control.
For `Cc1c2oc3c(C)ccc(C(=O)N[C@@H]4C(=O)N[C@H](C(C)C)C(=O)N5CCC[C@H]5C(=O)N(C)CC(=O)N(C)[C@@H](C(C)C)C(=O)O[C@H]4C)c3nc-2c(C(=O)N[C@@H]2C(=O)N[C@H](C(C)C)C(=O)N3CCC[C@H]3C(=O)N(C)CC(=O)N(C)[C@@H](C(C)C)C(=O)O[C@H]2C)c(N)c1=O` (I: [aThr][dV]P[Sar][NMeV] / II: [aThr][dV]P[Sar][NMeV]; ester I:1-I:C, II:1-II:C; linker I:N-II:N via Actinocin(9to1)), the T/C (dose: 0.01 mg/kg/injection, vehicle: acid diluted with saline) was 100 % of control and 110 % of control and the T/C (dose: 0.03 mg/kg/injection, vehicle: acid diluted with saline) was 120 % of control.
`C[n+]1c2ccccc2nc2c(N)cc(N)cc21` was tested, and the T/C [8] was 113 % of control, the T/C (dose: 18.0 mg/kg/injection, vehicle: saline) was 122 % of control and the T/C [9] was 113 % of control.
In the case of `CS(=O)(=O)OCCN(CCOS(C)(=O)=O)c1ccc(N=O)cc1`, the T/C [10] is reported as 107 % of control.
With `CC[C@]1(O)C[C@H]2CN(CCc3c([nH]c4ccccc34)[C@@](C(=O)OC)(c3cc4c(cc3OC)N(C=O)[C@H]3[C@@](O)(C(=O)OC)[C@H](OC(C)=O)[C@]5(CC)C=CCN6CC[C@]43[C@@H]65)C2)C1` the T/C (dose: 0.12 mg/kg/injection, vehicle: saline) was 250 % of control and the T/C (dose: 0.13 mg/kg/injection, vehicle: saline) was 285 % of control and 300 % of control.
In the case of `CN(C)c1ccc(Nc2c3ccccc3nc3ccccc23)cc1`, the T/C (dose: 36.0 mg/kg/injection, vehicle: saline) is reported as 107 % of control, the T/C (dose: 54.0 mg/kg/injection, vehicle: saline) is reported as 185 % of control and the T/C [11] is reported as 240 % of control. The T/C (dose: 120.0 mg/kg/injection, vehicle: saline) was 214 % of control.
With `CC(=O)N(C)C` the T/C [12] was 86 % of control and 90 % of control, the T/C [13] was 90 % of control and 95 % of control and the T/C (dose: 250.0 mg/kg/injection, vehicle: saline) was 95 % of control and 100 % of control. The T/C [14] was 100 % of control.
`NC(Cc1c[nH]c2ccc(N(CCCl)CCCl)cc12)C(=O)O` (stereo not given) was tested, and the T/C (dose: 0.5 mg/kg/injection, vehicle: saline) was 159 % of control, the T/C [10] was 159 % of control and 181 % of control and the T/C [1] was 195 % of control and 231 % of control.
In the case of `CCn1cnc2c(=S)nc[nH]c21`, the T/C (dose: 15.6 mg/kg/injection, vehicle: saline) is reported as 91 % of control and 104 % of control, the T/C (dose: 31.3 mg/kg/injection, vehicle: saline) is reported as 87 % of control and 89 % of control and 104 % of control and the T/C [12] is reported as 114 % of control. The T/C [13] was 87 % of control and 104 % of control.
In the case of `Nc1ncnc2[nH]ncc12`, the T/C (dose: 1.5 mg/kg/injection, vehicle: saline) is reported as 95 % of control and 110 % of control, the T/C (dose: 3.0 mg/kg/injection, vehicle: saline) is reported as 100 % of control and 104 % of control and the T/C (dose: 6.0 mg/kg/injection, vehicle: saline) is reported as 95 % of control. The T/C [8] was 95 % of control and the T/C [4] was 90 % of control.
For `S=P(N1CCOCC1)(N1CC1)N1CC1`, the T/C [15] was 91 % of control and 100 % of control (2×), the T/C [5] was 91 % of control and 92 % of control and 104 % of control and the T/C [6] was 89 % of control and 91 % of control and 104 % of control. The T/C [7] was 108 % of control and 121 % of control.
`Cn1c(N)nc2nc[nH]c2c1=S` was tested, and the T/C [6] was 96 % of control, the T/C [7] was 96 % of control and the T/C [9] was 107 % of control. For the same molecule, the T/C [11] was 107 % of control.
`O=C(Nc1ccc(C2=NCCCN2)cc1)c1ccc(C(=O)Nc2ccc(C3=NCCCN3)cc2)cc1` was tested, and the T/C (dose: 1.0 mg/kg/injection, vehicle: other) was 227 % of control and 241 % of control, the T/C [16] was 300 % of control and the T/C [17] was 86 % of control.
In the case of `O=C(Nc1ccc(NC2=NCCN2)cc1)c1ccc(C(=O)Nc2ccc(NC3=NCCN3)cc2)cc1`, the T/C [1] is reported as 180 % of control, the T/C [2] is reported as 195 % of control and 265 % of control and the T/C [3] is reported as 190 % of control. For the same molecule, the T/C [4] was 115 % of control.
For `Oc1cc(CN(CCCl)CCCl)c(O)cc1CN(CCCl)CCCl`, the T/C (dose: 0.63 mg/kg/injection, vehicle: saline) was 113 % of control, the T/C [15] was 168 % of control and the T/C [5] was 91 % of control and 122 % of control.
In the case of `CCCNc1ncnc2[nH]ncc12`, the T/C (dose: 3.13 mg/kg/injection, vehicle: saline) is reported as 86 % of control and 90 % of control, the T/C [18] is reported as 90 % of control and the T/C [19] is reported as 90 % of control and 95 % of control.
For `C[C@H](N)C(=O)N[C@@H]1[C@H]2C(=C(O)C[C@@H](O)[C@@H]2O)C(=O)O[C@@H]1C`, the T/C [20] was 110 % of control, the T/C (dose: 300.0 mg/kg/injection, vehicle: saline) was 110 % of control and 115 % of control and the T/C (dose: 600.0 mg/kg/injection, vehicle: saline) was 120 % of control. The T/C (dose: 1200.0 mg/kg/injection, vehicle: saline) was 115 % of control and 120 % of control.
With `O=C(Nc1ccc(C2=NCCN2)cc1)c1ccc(C(=O)Nc2ccc(C3=NCCN3)cc2)c(Cl)c1` the T/C [16] was 116 % of control, the T/C [17] was 150 % of control and 159 % of control and the T/C (dose: 8.0 mg/kg/injection, vehicle: other) was 225 % of control and 245 % of control. The T/C (dose: 16.0 mg/kg/injection, vehicle: other) was 216 % of control and 268 % of control and the T/C (dose: 32.0 mg/kg/injection, vehicle: other) was 191 % of control and 200 % of control.
With `COS(C)(=O)=O` the T/C [19] was 111 % of control, the T/C [21] was 300 % of control and the T/C (dose: 100.0 mg/kg/injection, vehicle: saline) was 176 % of control.
With `CS(=O)(=O)OCCCl` the T/C (dose: 18.8 mg/kg/injection, vehicle: saline) was 100 % of control, the T/C (dose: 37.5 mg/kg/injection, vehicle: saline) was 100 % of control and the T/C (dose: 75.0 mg/kg/injection, vehicle: saline) was 95 % of control. The T/C [20] was 100 % of control.
`O=C(Nc1ccc(C2=NCCN2)cc1)c1cccc(C(=O)Nc2ccc(C3=NCCN3)cc2)c1` was tested, and the T/C [3] was 183 % of control and 200 % of control, the T/C [4] was 272 % of control and 300 % of control and the T/C (dose: 32.0 mg/kg/injection, vehicle: saline) was 279 % of control and 300 % of control. The T/C (dose: 64.0 mg/kg/injection, vehicle: saline) was 279 % of control and 290 % of control.
For `O=NN(CCCl)C(=O)NCCCl`, the T/C [18] was 300 % of control and the T/C (dose: 16.25 mg/kg/injection, vehicle: saline) was 257 % of control.
`CCN(CC)CCNc1ccc(C)c2sc3ccccc3c(=O)c12` was tested, and the T/C [19] was 100 % of control, the T/C (dose: 25.0 mg/kg/injection, vehicle: saline) was 114 % of control and the T/C [21] was 91 % of control and 114 % of control.
With `CCOC(N)=O` the T/C [13] was 91 % of control and 100 % of control and the T/C [14] was 95 % of control.
`Clc1ncnc2nc[nH]c12` was tested, and the T/C (dose: 7.5 mg/kg/injection, vehicle: saline) was 87 % of control and 95 % of control, the T/C (dose: 15.0 mg/kg/injection, vehicle: saline) was 95 % of control and the T/C (dose: 30.0 mg/kg/injection, vehicle: saline) was 95 % of control.
In the case of `CCN(CC)c1ccc2cc3ccc(=[N+](CC)CC)cc-3oc2c1`, the T/C [10] is reported as 100 % of control and 109 % of control, the T/C [1] is reported as 100 % of control and 122 % of control and the T/C [2] is reported as 100 % of control and 104 % of control. The T/C [3] was 95 % of control and 100 % of control.
